Laboratory results taken from PMC10732398 (PLOS Pathogens, 2023).

Assays:
⍺4β7 [1] = assay: SPR binding kinetics: recombinant ⍺4β7 passed over ligand-coated surfaces (S1 Table); settings: SPR Biacore 3000, ligand immobilized, ⍺4β7 analyte, HBS pH 7.4, 1 mM MnCl2, 25°C
Method: To measure the specific affinity of CD4–⍺4β7 interactions we developed a surface plasmon resonance (SPR) -based assay in which recombinant ⍺4β7 was passed over a surface coated with a 23 kD D1D2 protein (aa 1–183). For comparison we prepared surfaces with recombinant MAdCAM-Ig, VCAM-Ig, monomeric gp120, and a SOSIP env trimer (S1 Table). Assays were carried out in the presence of MnCl2 to present ⍺4β7 in an active conformation. […] This rate of dissociation was similar to that of both MAdCAM-Ig and VCAM-Ig with ⍺4β7 and is indicative of a relatively high-affinity interaction.
(§1) Experiments were performed using a Biacore 3000 instrument (Cytiva Life Sciences) using CM4 or CM5 sensor chips. The data were evaluated using BIAevaluation 4.1.1 software (Cytiva Life Sciences). The chip surface was activated by injecting 35 μl of a 1:1 mixture of 0.05 M N-hydroxysuccinimide and 0.2 M N-ethyl-N-(dimethylaminopropyl) carbodiimide at 5 μl/min. NeutrAvidin, HIV gp120, sCD4 (D1D2) or Hu-MAdCAM-Ig (R&D Systems) at concentrations of 5 μg/ml in 10mM NaOAc, pH 4.5, were immobilized to 250–750 resonance units (RU). After the proteins were immobilized to the desired densities, unreacted sites were blocked with 35 μl of 1 M Tris-HCl (pH 8.0). Biotinylated cyclic V2 peptides (1 μg/ml in 20 mM Tris-HCl, pH 8.0) were bound to the NeutrAvidin surfaces to densities of approximately 250–300 RU. One surface was activated and blocked without ligand as a control surface for non-specific binding. Signal from the control surface was subsequently subtracted. Running buffer was HBS (pH 7.4), 1 mM MnCl2, 0.005% Tween- 20, 0.05% soluble carboxymethyl-dextran. Binding experiments were carried out at a flow rate of 25 μl/min at 25°C. After a 2 min injection, the surface was washed for an additional 2 min in running buffer allowing dissociation of the bound ligand from the surface. The surfaces were regenerated by multiple injections of 4.5 M MgCl2 at a flow rate of 100 μl/min. Inhibition of ⍺4β7 binding by linear V2-loop and CD4 derived peptides was carried out by pre-incubating ⍺4β7 with the peptides in running buffer at the indicated concentrations for 2 hours at room temperature prior to passing them over the prepared surfaces as described above. Cross-inhibition experiments were performed by passing either buffer or the listed analytes over a surface to which sCD4 (D1D2) had been immobilized, followed by a secondary sequential injection of ⍺4β7. The ability of each analyte to inhibit either itself or ⍺4β7 was determined by comparing the binding of ⍺4β7 in the absence or presence of the listed pre-bound analytes as previously described. Illustration of the dynamic range of range of linear peptide inhibition assays is provided in S4 Fig.

⍺4β7 [2] = assay: SPR: inhibition by linear peptides of soluble ⍺4β7 binding to a CD4 D1D2 coated surface; settings: SPR peptide scan (Fig 4A); ⍺4β7 pre-incubated with peptide 2 hours at room temperature; 1 mM MnCl2
Description: We next modified our SPR -based assay in order to map the site(s) on CD4 that interacts with ⍺4β7. In this modified assay ⍺4β7 was passed over a surface coated with CD4 D1D2 in the absence or presence of 42 overlapping 15 amino acid linear peptides spanning CD4 residues 1–178 (S2 Table). Two peptides located in CD4 D1, #7 and #9, inhibited ⍺4β7 binding by ~17% (Fig 4A). The final peptide in CD4 D2, p42, inhibited binding by ~ 66%. Linear peptides often lack the true conformation of the protein from which they are derived. Additionally, the kinetic format of our assay allows for ligand-analyte rebinding during the association phase. These features render this inhibition assay somewhat insensitive. Nevertheless, the dynamic range of this assay is sufficient to identify interactions that are worthy of follow-up investigation (S4 Fig). As such, our preliminary findings raised the possibility that both D1 and D2 domains of CD4 interact with ⍺4β7. Of note, MAdCAM-1 and VCAM-1, like CD4, present two tandemly arrayed N-terminal IgSF domains (Fig 4B). In both cases, binding to ⍺4β7 is mediated by a 1° binding site in their D1s and an accessory site, located in their D2s. The term accessory is a misnomer insofar as these sites plays an essential role in ⍺4β7 binding. Follow-up experiments focused on p9 and p42, which we herein refer to as pCD4^33-47 and pCD4^165-178. pCD4^33-47 partially overlaps the D1 C’C” β-strands and a connecting loop. The primary gp120 contact site (Phe^43) lies at the N-terminal edge of this loop (Fig 4C). pCD4^165-178 includes Q^165 and K^166. These residues lie primarily within the G β-strand of D2, close to the boundary with D3. Because peptide inhibition assays sometime mediate nonspecific effects, further analysis was performed to better establish the role of these two regions of CD4 in binding to ⍺4β7.
To determine if this is the case, we employed an SPR -based assay. Biosensor surfaces were coated with either CD4 D1D2 or a 42 aa cyclic V2 peptide derived from the subtype E 92TH023 gp120 (cV2 92TH023). A third surface coated with MAdCAM-Ig was employed as a positive control. Soluble ⍺4β7 was passed over these surfaces. We then evaluated the capacity of staggered 15 aa peptides that span either CD4 D2 or gp120 V2 to inhibit this interaction (Fig 7A).
as §1, with “Cross-inhibition experiments were performed by passing either buffer or the listed analytes over a surface to which sCD4 (D1D2) had been immobilized, followed by a secondary sequential injection of ⍺4β7. The ability of each analyte to inhibit either itself or ⍺4β7 was determined by comparing the binding of ⍺4β7 in the absence or presence of the listed pre-bound analytes as previously described. Illustration of the dynamic range of range of linear peptide inhibition assays is provided in S4 Fig.” left out

| Substance | KA (⍺4β7 [1]) | ka (⍺4β7 [1]) | kd (⍺4β7 [1]) | inhibition of ⍺4β7 binding to CD4 D1D2 coated surface (⍺4β7 [2]) |
| --- | --- | --- | --- | --- |
| MAdCAM-Ig: recombinant MAdCAM-1 Ig fusion, R&D Systems [reference compound] | 1.12e+08 M⁻¹ | 96700 M⁻¹ s⁻¹ | 0.000863 s⁻¹ | – |
| QKKVEFKIDIVVLA [CD4 P42, linear CD4 D2 peptide, residues 165-178, G β-strand] | – | – | – | ~ 66% |
